Source: patent EP0767786B1, “7-ETHER-TAXOL ANALOGS, ANTINEOPLASTIC USE AND PHARMACEUTICAL COMPOSITIONS CONTAINING THEM” (PHARMACIA & UPJOHN COMPANY, priority 1994, dated 1996)
Values after ≈ are worked out from the molar mass of the structure shown. Like-named read-outs stand apart in the source and are kept apart here.

How the values were obtained:
[1] = test system: tubulin; assay: in vitro tubulin polymerization assay (after Gaskin et al.); type: biochemical; settings: in vitro at 20°C, compared with taxol
Description: (§1) The biological activity of the 7-deoxy-7-ether-taxol compounds (Formula I) of the invention has been confirmed using well known procedures.

[2] = test system: A2780 human ovarian carcinoma; assay: activity against A2780 human ovarian carcinoma cells; type: cell-based; settings: for IC50: read-out: A2780 (IC50 ug/ml)
Description: The biological activity of the compounds of this invention has been further confirmed using well known procedures against A2780 human ovarian carcinoma and the results set forth in Table II. The results were obtained using standard well known procedure (Perez, R. P.; O'Dwyer, P. J.; Handel, L. M.; Ozols, R. F.; Hamilton, T. C. Int. J. Cancer 1991, 48, 265, Alley, M.C.; Scudiero, D. A.; Monks, A.; Hursey, M. L; Czerwinski, M. J.; Fine, D. L.; et al. Cancer Res 1988, 48, 589).

[3] = test system: L1210 mouse leukemia carcinoma cells; assay: cytotoxicity / inhibition of cell proliferation in L1210 leukemia cells in culture; type: cell-based; settings: drug concentration required to inhibit cell proliferation to 50% of that of untreated control cells; for IC50: Mus musculus, L1210, read-out: L1210 (IC50 ug/ml)
Description: as §1
The biological activity of the compounds of this invention has been further confirmed using well known procedures against L1210 leukemia and the results set forth in Table I. The results were obtained using standard well known procedure (Li, L.H.; Kuentzel, S.L.; Murch, L.L.; Pschigoga, L.M.; and W.C. Krueger, "Comparative biological and biochemical effects of nogalamycin and its analogs on L1210 leukemia," Cancer Res. 39:4816-4822 (1979)). The results are expressed as an IC50 which is the drug concentration required to inhibit cell proliferation to 50% of that of untreated control cells. Lower numbers indicated greater activity.

[4] = test system: L1210 mouse leukemia carcinoma cells; assay: as above; type: cell-based

Row | A2780 (IC50 ug/ml) [2] [µg/mL] | Compound | L1210 (IC50 ug/ml) [3] [µg/mL] | also measured
1 | 0.00004 | COCOC1CC2OCC2(OC(C)=O)C2C(OC(=O)c3ccccc3)C3(O)CC(OC(=O)C(O)C(NC(=O)NC(C)(C)C)c4ccccc4)C(C)=C(C(OC(C)=O)C(=O)C12C)C3(C)C (stereo not drawn) [Compound 27, 7-(O-methoxymethyl)-13-(N-(t-butylaminocarbonyl)-β-phenylisoserinyl)-baccatin III] | – | induce tubulin polymerization in vitro [1]: able to induce tubulin polymerization in vitro at 20 °C in a manner very similar to taxol
2 | 0.00034 | COC1CC2OCC2(OC(C)=O)C2C(OC(=O)c3ccccc3)C3(O)CC(OC(=O)C(O)C(NC(=O)NC(C)(C)C)c4ccccc4)C(C)=C(C(OC(C)=O)C(=O)C12C)C3(C)C (centres unmarked) [Compound 56, 13-(N-(t-butylaminocarbonyl)-b-phenylisoserinyl)-baccatin III 7-O-methyl ether] | – | –
3 | – | COCCOCOC1CC2OCC2(OC(C)=O)C2C(OC(=O)c3ccccc3)C3(O)CC(OC(=O)C(O)C(NC(=O)OC(C)(C)C)c4ccccc4)C(C)=C(C(OC(C)=O)C(=O)C12C)C3(C)C (stereo not drawn) [Compound 6, 7-(O-methoxyethoxymethyl)-13-(N-Boc-β-phenylisoserinyl)-baccatin III] | 0.0023 | –
4 | – | CC(=O)O[C@H]1C(=O)[C@@]2(C)[C@H]([C@H](OC(=O)c3ccccc3)[C@]3(O)C[C@H](OC(=O)[C@H](O)[C@@H](NC(=O)c4ccccc4)c4ccccc4)C(C)=C1C3(C)C)[C@]1(OC(C)=O)CO[C@@H]1C[C@@H]2O [taxol, Taxol] | – | IC50 [2]: 0.0018 µg/mL (≈ 2.11 nM); IC50 [3]: 0.017 µg/mL (≈ 19.9 nM); IC90 ([4]; read-out: IC90 (90% growth inhibitory concentration)): 0.017 µg/mL (≈ 19.9 nM)
5 | – | 7-[O-(2,2,2-trichloroethoxy)methoxymethyl]-13-(N-Boc-β-phenyl isoserinyl)-baccatin III [Compound 22] | 0.0047 | –
6 | 0.00037 | CSCOC1CC2OCC2(OC(C)=O)C2C(OC(=O)c3ccccc3)C3(O)CC(OC(=O)C(O)C(NC(=O)OC(C)(C)C)c4ccccc4)C(C)=C(C(OC(C)=O)C(=O)C12C)C3(C)C (stereo not drawn) [Compound 44, 7-(O-methylthiomethyl)-13-(N-Boc-β-phenylisoserinyl)-baccatin III] | – | –
7 | – | CC(=O)OC1C(=O)C2(C)C(OCOCc3ccccc3)CC3OCC3(OC(C)=O)C2C(OC(=O)c2ccccc2)C2(O)CC(OC(=O)C(O)C(NC(=O)OC(C)(C)C)c3ccccc3)C(C)=C1C2(C)C (stereo not drawn) [Compound 10, 7-(O-benzyloxymethyl)-13-(N-Boc-β-phenylisoserinyl)-baccatin III] | 0.001 | –
8 | – | CC(=O)O[C@@]12CO[C@@H]1C[C@H](O)[C@@]1(C)C(=O)[C@H](O)C3=C(C)[C@@H](OC(=O)[C@H](O)[C@@H](NC(=O)OC(C)(C)C)c4ccccc4)C[C@@](O)([C@@H](OC(=O)c4ccccc4)[C@H]21)C3(C)C [taxotere, reference compound] | – | IC50 [2]: 0.0007 µg/mL (≈ 0.866 nM); IC50 [3]: 0.004 µg/mL (≈ 4.95 nM)
9 | 0.0007 | CCOCOC1CC2OCC2(OC(C)=O)C2C(OC(=O)c3ccccc3)C3(O)CC(OC(=O)C(O)C(NC(=O)OC(C)(C)C)c4ccccc4)C(C)=C(C(OC(C)=O)C(=O)C12C)C3(C)C (stereo not drawn) [Compound 4, 7-(O-ethoxymethyl)-13-(N-Boc-β-phenylisoserinyl)-baccatin III] | – | induce tubulin polymerization in vitro [1]: able to induce tubulin polymerization in vitro at 20 °C in a manner very similar to taxol
10 | 0.00025 | CSCOC1CC2OCC2(OC(C)=O)C2C(OC(=O)c3ccccc3)C3(O)CC(OC(=O)C(O)C(NC(=O)NC(C)(C)C)c4ccccc4)C(C)=C(C(OC(C)=O)C(=O)C12C)C3(C)C (centres unmarked) [Compound 55, 13-(N-(t-butylaminocarbonyl)-b-phenylisoserinyl)-baccatin III 7-O-methylthiomethyl ether] | – | –
11 | – | COCOC1CC2OCC2(OC(C)=O)C2C(OC(=O)c3ccccc3)C3(O)CC(OC(=O)C(O)C(NC(=O)OC(C)(C)C)c4ccccc4)C(C)=C(C(OC(C)=O)C(=O)C12C)C3(C)C (stereo not drawn) [Compound 8, 7-(O-methoxymethyl)-13-(N-Boc-2'-β-phenylisoserinyl)-baccatin III] | 0.0011 | IC90 (90% growth inhibitory concentration) [4]: 0.0011 micrograms/ml
12 | – | 7-[O-(2,2,2-trichloroethoxy)methyl]-13-(N-Boc-β-phenyl isoserinyl)-baccatin III [Compound 21] | 0.0024 | –
13 | 0.00007 | CCOCOC1CC2OCC2(OC(C)=O)C2C(OC(=O)c3ccccc3)C3(O)CC(OC(=O)C(O)C(NC(=O)NC(C)(C)C)c4ccccc4)C(C)=C(C(OC(C)=O)C(=O)C12C)C3(C)C (stereo not drawn) [Compound 14, 7-(O-ethoxymethyl)-13-(N-(t-butylaminocarbonyl)-β-phenylisoserinyl)-baccatin III] | 0.0014 | –

Row | Compound | A2780 (IC50 ug/ml) [2] [µg/mL] | L1210 (IC50 ug/ml) [3] [µg/mL] | also measured
14 | 13-(N-Boc-2'-TES-b-phenyl isoserinyl)-baccatin III 7-O-methyl ether [Compound 58] | 0.00038 | – | –
15 | CC(=O)OC1C(=O)C2(C)C(OCSc3ccccc3)CC3OCC3(OC(C)=O)C2C(OC(=O)c2ccccc2)C2(O)CC(OC(=O)C(O)C(NC(=O)c3ccccc3)c3ccccc3)C(C)=C1C2(C)C (centres unmarked) [Compound 46, 7-(O-phenylthiomethyl) taxol] | 0.0016 | – | –
16 | COC1CC2OCC2(OC(C)=O)C2C(OC(=O)c3ccccc3)C3(O)CC(OC(=O)C(O)C(NC(=O)c4ccccc4)c4ccccc4)C(C)=C(C(OC(C)=O)C(=O)C12C)C3(C)C (centres unmarked) [Compound 47, 7-O-methyl Taxol] | 0.0007 | – | A2780 (IC50 ug/ml) ([2]; retest): 0.00044 µg/mL
17 | CCSC(C)OC1CC2OCC2(OC(C)=O)C2C(OC(=O)c3ccccc3)C3(O)CC(OC(=O)C(O)C(NC(=O)c4ccccc4)c4ccccc4)C(C)=C(C(OC(C)=O)C(=O)C12C)C3(C)C (centres unmarked) [Compound 49, 7-[O-ethyl(1-thioethyl)] Taxol] | 0.0057 | – | –
18 | CSCOC1CC2OCC2(OC(C)=O)C2C(OC(=O)c3ccccc3)C3(O)CC(OC(=O)C(O)C(NC(=O)c4ccccc4)c4ccccc4)C(C)=C(C(OC(C)=O)C(=O)C12C)C3(C)C (centres unmarked) [Compound 42, 7-(O-methylthiomethyl) taxol] | 0.00047 | – | –
